pIC50: −log10 of the molar value.
Tests used:
[1] = biological target: His-tagged KRAS G12D protein (Homo sapiens, UniProt P01116, G12D); experiment: KRAS G12D TR-FRET Assay; type: binding; conditions: biotinylated KRPep-2d substrate, 10 μM GDP;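 further: europium anti-His antibody paired with streptavidin-d2 as FRET partners, initial 30 min incubation, then peptide 1 h and detection reagents 1 h, all at room temperature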
[2] = biological target: GDP-bound KRAS protein (aa 1-169), containing both G12D and C118A amino acid substitutions (Homo sapiens, UniProt P01116, C118A/G12D); experiment: KRAS G12D Coupled Nucleotide Exchange Assay; type: biochemical; conditions: 2 h compound pre-incubation; SOS-mediated nucleotide exchange, cRAF AlphaScreen readout;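 further: IC50 obtained by fitting the AlphaScreen signal with a four-parameter logistic curve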
Chain of GDP-bound KRAS protein (aa 1-169), containing both G12D and C118A amino acid substitutions (P01116 1-169 isoform P01116-2 G12D/C118A): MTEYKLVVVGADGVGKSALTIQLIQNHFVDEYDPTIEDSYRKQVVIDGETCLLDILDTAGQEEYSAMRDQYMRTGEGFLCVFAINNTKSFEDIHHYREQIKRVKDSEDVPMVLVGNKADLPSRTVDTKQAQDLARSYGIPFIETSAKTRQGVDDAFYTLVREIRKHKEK

Chain of His-tagged KRAS G12D protein (P01116 1-188 isoform P01116-2 G12D): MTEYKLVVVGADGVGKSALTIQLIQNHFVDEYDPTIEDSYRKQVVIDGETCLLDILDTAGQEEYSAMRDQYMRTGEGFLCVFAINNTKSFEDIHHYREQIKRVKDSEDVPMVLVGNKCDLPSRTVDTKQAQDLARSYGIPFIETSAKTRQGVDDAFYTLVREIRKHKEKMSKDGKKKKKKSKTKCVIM

pIC50 [1] | Avg 2 h Coupled Exchange IC50 [2] | Structure (SMILES)
5.53 | 803 nM | CC1CNCC=C1c1nc(OC[C@@H]2CCCN2C)nc2c(F)c(-c3cccc4sc(N)nc34)c(Cl)cc12 (single isomer, unassigned) [Example 145]
5.39 | 1560 nM | CC1CNCC=C1c1nc(OC[C@@H]2CCCN2C)nc2c(F)c(-c3cccc4sc(N)nc34)c(Cl)cc12 (single isomer, unassigned) [Example 146]
4.95 | 3655 nM | CN1CCC[C@H]1COc1nc(N2CCNC(C(F)(F)F)C2)c2cc(Cl)c(-c3cccc4sc(N)nc34)c(F)c2n1 (stereo partly drawn) [Example 1, 4-(6-Chloro-8-fluoro-2-(((S)-1-methylpyrrolidin-2-yl)methoxy)-4-(3-(trifluoromethyl)piperazin-1-yl)quinazolin-7-yl)benzo[d]thiazol-2-amine]
8.05 | 7 nM | Nc1nc2c(-c3c(Cl)cc4c(N5CCNCC5)nc(OCC56CCCN5CCC6)nc4c3F)ccc(F)c2s1 [Example 8, 4-(6-chloro-8-fluoro-4-(piperazin-1-yl)-2-((tetrahydro-1H-pyrrolizin-7a(5H)-yl)methoxy)quinazolin-7-yl)-7-fluorobenzo[d] thiazol-2-amine]
7.85 | 10 nM | CN1CCC[C@H]1COc1nc(N2C3CNCC2COC3)c2cc(Cl)c(-c3cccc4sc(N)nc34)c(F)c2n1 [Example 10, 4-(4-(3-oxa-7,9-diazabicyclo[3.3.1]nonan-9-yl)-6-chloro-8-fluoro-2-(((S)-1-methylpyrrolidin-2-yl)methoxy)quinazolin-7-yl)benzo[d] thiazol-2-amine]
7.74 | 14 nM | Nc1nc2c(-c3c(Cl)cc4c(N5CCCNC(=O)C5)nc(OCC56CCCN5CCC6)nc4c3F)ccc(F)c2s1 [Example 12, 4-(7-(2-amino-7-fluorobenzo[d]thiazol-4-yl)-6-chloro-8-fluoro-2-((tetrahydro-1H-pyrrolizin-7a(5H)-yl)methoxy)quinazolin-4-yl)-1,4-diazepan-2-one]
7.66 | 14 nM | Nc1nc2c(-c3c(Cl)cc4c(N5CCNC(=O)CC5)nc(OCC56CCCN5CCC6)nc4c3F)ccc(F)c2s1 [Example 13, 1-(7-(2-amino-7-fluorobenzo [d]thiazol-4-yl)-6-chloro-8-fluoro-2-((tetrahydro-1H-pyrrolizin-7a(5H)-yl)methoxy)quinazolin-4-yl)-1,4-diazepan-5-one]
6.87 | 30 nM | CN1CCC[C@H]1COc1nc(N2CCCNCC2)c2cc(Cl)c(-c3cccc4sc(N)nc34)c(F)c2n1 [Example 17, 4-(6-chloro-4-(1,4-diazepan-1-yl)-8-fluoro-2-(((S)-1-methylpyrrolidin-2-yl)methoxy)quinazolin-7-yl)benzo[d] thiazol-2-amine]
7.07 | 62 nM | CN1C[C@H](F)C[C@H]1COc1nc(N2CCCNC(=O)C2)c2cc(Cl)c(-c3ccc(F)c4sc(N)nc34)c(F)c2n1 [Example 19, 4-(7-(2-amino-7-fluorobenzo[d]thiazol-4-yl)-6-chloro-8-fluoro-2-(((2S,4R)-4-fluoro-1-methylpyrrolidin-2-yl)methoxy)quinazolin-4-yl)-1,4-diazepan-2-one]
7.01 | 67 nM | CN1C[C@H](F)C[C@H]1COc1nc(N2CCNC(=O)CC2)c2cc(Cl)c(-c3ccc(F)c4sc(N)nc34)c(F)c2n1 [Example 21, 1-(7-(2-amino-7-fluorobenzo[d]thiazol-4-yl)-6-chloro-8-fluoro-2-(((2S,4R)-4-fluoro-1-methylpyrrolidin-2-yl)methoxy)quinazolin-4-yl)-1,4-diazepan-5-one]
– | 1850 nM | Nc1nc2c(-c3c(Cl)cc4c(N5CCNCC5)nc(N5CC6(CCOCC(=O)N6)C5)nc4c3F)cccc2s1 [Example 105, 2-[7-(2-amino-1,3-benzothiazol-4-yl)-6-chloro-8-fluoro-4-piperazin-1-yl-quinazolin-2-yl]-8-oxa-2,5-diazaspiro[3.6]decan-6-one]
– | 1900 nM | Nc1nc2c(-c3c(Cl)cc4c(N5CCNCC5)nc(NCC(O)c5cncs5)nc4c3F)cccc2s1 (stereo not shown) [Example 106, 2-[[7-(2-amino-1,3-benzothiazol-4-yl)-6-chloro-8-fluoro-4-piperazin-1-yl-quinazolin-2-yl]amino]-1-thiazol-5-yl-ethanol]
– | 1900 nM | Nc1nc2c(-c3c(Cl)cc4c(N5CCNCC5)nc(N5CCN6CCC5C6)nc4c3F)cccc2s1 (stereo not shown) [Example 107, 4-[6-chloro-8-fluoro-4-piperazin-1-yl-2-[1,4-diazabicyclo[3.2.1]octan-4-yl]quinazolin-7-yl]-1,3-benzothiazol-2-amine]
– | 1970 nM | Nc1nc2c(-c3c(Cl)cc4c(N5CCNCC5)nc(N5CC6(CC(O)c7nccn76)C5)nc4c3F)cccc2s1 (stereo not shown) [Example 108, 1′-[7-(2-amino-1,3-benzothiazol-4-yl)-6-chloro-8-fluoro-4-piperazin-1-yl-quinazolin-2-yl]spiro[6,7-dihydropyrrolo[1,2-a]imidazole-5,3′-azetidine]-7-ol]
– | 2170 nM | Nc1nc2c(-c3c(Cl)cc4c(N5CCNCC5)nc(N5CCC6(CCN6)C5)nc4c3F)cccc2s1 (stereo not shown) [Example 109, 4-[6-chloro-8-fluoro-4-piperazin-1-yl-2-[1,7-diazaspiro[3.4]octan-7-yl]quinazolin-7-yl]-1,3-benzothiazol-2-amine]
– | 2180 nM | Nc1nc2c(-c3c(Cl)cc4c(N5CCNCC5)nc(N[C@H]5CCc6ncsc6C5)nc4c3F)cccc2s1 [Example 110, 4-[6-chloro-8-fluoro-4-piperazin-1-yl-2-[[(6S)-4,5,6,7-tetrahydro-1,3-benzothiazol-6-yl]amino]quinazolin-7-yl]-1,3-benzothiazol-2-amine]
– | 2300 nM | Nc1nc2c(-c3c(Cl)cc4c(N5CCNCC5)nc(N5CC(N6CCS(=O)(=O)CC6)C5)nc4c3F)cccc2s1 [Example 111, 4-[6-chloro-2-[3-(1,1-dioxo-1,4-thiazinan-4-yl)azetidin-1-yl]-8-fluoro-4-piperazin-1-yl-quinazolin-7-yl]-1,3-benzothiazol-2-amine]
– | 2460 nM | CCN1CCN(C2CN(c3nc(N4CCNCC4)c4cc(Cl)c(-c5cccc6sc(N)nc56)c(F)c4n3)C2)CC1 [Example 112, 4-[6-chloro-2-[3-(4-ethylpiperazin-1-yl)azetidin-1-yl]-8-fluoro-4-piperazin-1-yl-quinazolin-7-yl]-1,3-benzothiazol-2-amine]
– | 2480 nM | CN1C(=O)CC2(CN(c3nc(N4CCNCC4)c4cc(Cl)c(-c5cccc6sc(N)nc56)c(F)c4n3)C2)n2ccnc21 [Example 113, 1′-[7-(2-amino-1,3-benzothiazol-4-yl)-6-chloro-8-fluoro-4-piperazin-1-yl-quinazolin-2-yl]-8-methyl-spiro[6H-imidazo[1,2-a]pyrimidine-5,3′-azetidine]-7-one]
– | 2770 nM | Nc1nc2c(-c3c(Cl)cc4c(N5CCNCC5)nc(N5CC6CNC(C6)C5)nc4c3F)cccc2s1 (stereo not shown) [Example 114, 4-[6-chloro-8-fluoro-4-piperazin-1-yl-2-[3,6-diazabicyclo[3.2.1]octan-3-yl]quinazolin-7-yl]-1,3-benzothiazol-2-amine]
– | 2860 nM | Nc1nc2c(-c3c(Cl)cc4c(N5CCNCC5)nc(N5C[C@@H]6NCC[C@@H]65)nc4c3F)cccc2s1 [Example 115, 4-[6-chloro-2-[(1S,5S)-2,6-diazabicyclo[3.2.0]heptan-6-yl]-8-fluoro-4-piperazin-1-yl-quinazolin-7-yl]-1,3-benzothiazol-2-amine]
– | 3110 nM | Nc1nc2c(-c3c(Cl)cc4c(N5CCNCC5)nc(N5CC(n6ccnc6)C5)nc4c3F)cccc2s1 [Example 116, 4-[6-chloro-8-fluoro-2-(3-imidazol-1-ylazetidin-1-yl)-4-piperazin-1-yl-quinazolin-7-yl]-1,3-benzothiazol-2-amine]
– | 3320 nM | CC1(C)CN(C2CN(c3nc(N4CCNCC4)c4cc(Cl)c(-c5cccc6sc(N)nc56)c(F)c4n3)C2)CCO1 [Example 117, 4-[6-chloro-2-[3-(2,2-dimethylmorpholin-4-yl)azetidin-1-yl]-8-fluoro-4-piperazin-1-yl-quinazolin-7-yl]-1,3-benzothiazol-2-amine]
– | 3370 nM | Nc1nc2c(-c3c(Cl)cc4c(N5CCNCC5)nc(N5CC6(C5)NCC6(F)F)nc4c3F)cccc2s1 [Example 118, 4-[6-chloro-2-(3,3-difluoro-1,6-diazaspiro[3.3]heptan-6-yl)-8-fluoro-4-piperazin-1-yl-quinazolin-7-yl]-1,3-benzothiazol-2-amine]
– | 3670 nM | CCOC(=O)c1ccn(C2CN(c3nc(N4CCNCC4)c4cc(Cl)c(-c5cccc6sc(N)nc56)c(F)c4n3)C2)n1 [Example 119, ethyl 1-[1-[7-(2-amino-1,3-benzothiazol-4-yl)-6-chloro-8-fluoro-4-piperazin-1-yl-quinazolin-2-yl]azetidin-3-yl]pyrazole-3-carboxylate]
– | 3900 nM | Nc1nc2c(-c3c(Cl)cc4c(N5CCNCC5)nc(N5CC6(CCNC6)C5)nc4c3F)cccc2s1 [Example 120, 4-[6-chloro-2-(2,7-diazaspiro[3.4]octan-2-yl)-8-fluoro-4-piperazin-1-yl-quinazolin-7-yl]-1,3-benzothiazol-2-amine]
– | 3950 nM | Nc1nc2c(-c3c(Cl)cc4c(N5CCNCC5)nc(N5CCCC(c6nccs6)C5)nc4c3F)cccc2s1 (stereo not shown) [Example 121, 4-[6-chloro-8-fluoro-4-piperazin-1-yl-2-[3-thiazol-2-yl-1-piperidyl]quinazolin-7-yl]-1,3-benzothiazol-2-amine]

— patent publication US20250059179A1, “Heterocyclic Compounds and Methods of Use” (AMGEN INC., priority 2021, published 2025)
